Laboratory results taken from patent US8629100B2, “Method of inhibiting clostridium difficile by administration of oritavancin” (The Medicines Company, priority 2007, dated 2014).

Tests used:
[1] = system: C. difficile PCR ribotype 027; assay: In vitro triple-stage chemostat human gut model of clindamycin-induced CDI; details: for Decline of cytotoxin titres during instillation: 7 days; for Recrudescence of C. difficile spore germination, proliferation and cytotoxin production: after concentrations declined below limits of detection
Text: A single isolate of C. difficile PCR ribotype 027 was investigated. This isolate was a clinical strain recovered during an epidemic of CDI at the Maine Medical Centre (Portland, USA) in 2005. It was supplied courtesy of Dr. Rob Owens and ribotyped at the Anaerobe Reference Laboratory (Cardiff, Wales, UK) by Dr Jon Brazier.
The gut model was designed to allow the study of the intestinal microflora in the low pH, carbohydrate-excess conditions of the proximal colon and the carbohydrate-depleted, non-acidic conditions of the distal colon (Macfarlane et al., Microb Ecol 1998; 35: 180-7). Microbiological and physicochemical measurements within the gut model vessels were validated against the intestinal contents of sudden death victims (Macfarlane et al., Microb Ecol 1998; 35: 180-7). Each gut model consists of three fermentation vessels connected in a weir cascade system top-fed with growth medium at a controlled rate (D=0.015 h^−1). Vessels were sparged with oxygen-free nitrogen to ensure anaerobiosis, heated via a water-jacketed system (37° C.) and maintained at specific pH using fermenter controller units (Biosolo 3, Brighton Systems, UK) delivering 0.5 M HCl/NaOH. Vessel 1 (280 mL) was operated at pH 5.5 and high substrate availability, thus reflecting the conditions within the proximal colon, while vessels 2 and 3 (300 mL) were operated at pH 6.2 and 6.8, respectively, with low substrate availability, thus reflecting the conditions within the distal colon. The gut model was primed with faecal slurry ˜10% (w/v) and allowed to equilibrate with respect to bacterial populations for 14 days.
Faecal samples were collected from five healthy elderly (>65 years) volunteers and immediately transported to the laboratory under anaerobic conditions (GasPak, Oxoid, Basingstoke, UK). […] C. difficile-negative faeces were pooled and a coarse-filtered slurry (˜10% w/v) in sterile pre-reduced phosphate-buffered saline was prepared. Vessels of the gut models were filled to approximately two-thirds volume, and the growth medium pumps were started.
Major culturable components of the indigenous gut microflora and C. difficile were enumerated by viable counting (log10 cfu/mL) on selective and non-selective agars as reported previously (Freeman et al., J Antimicrob Chemother 2005; 56: 717-25). Bacterial groups enumerated were: total facultative anaerobes, facultatively anaerobic lactose fermenters, total anaerobes, bifidobacteria, Bacteroides fragilis group, total clostridia, lactobacilli, enterococci, total C. difficile and C. difficile spores. C. difficile cytotoxin production was quantified using a Vero cell cytotoxicity assay as described previously (Freeman et al., J Antimicrob Chemother 2003; 52: 96-102). Cytotoxin titres were expressed in log10 relative units (RU). Only C. difficile total bacterial counts, spore counts and cytotoxin titres were enumerated in vessel 1 of the gut model.
The use of the gut model to evaluate therapeutic interventions for CDI has been described previously (Freeman et al., J Antimicrob Chemother 2007; 60: 83-91; Freeman et al., J Antimicrob Chemother 2005; 56: 717-25). Briefly, following inoculation of each gut model with the faecal slurry, no further interventions were made for 13 days (period A). During period A, bacterial populations were enumerated every 2 days. Next (day 14), vessel 1 of each gut model was inoculated with a single inoculum of ˜10^7 cfu C. difficile PCR ribotype 027 spores (Freeman et al., J Antimicrob Chemother 2003; 52: 96-102), with no further interventions for 7 days (period B). From this point onwards, bacterial populations were enumerated daily.

[2] = system: C. difficile (CD) ATCC 43255; assay: Hamster model of CDI, oral administration; assay type: in vivo, Syrian golden hamsters; details: for Survival prolonged more than untreated animals: formulated in HPCD, gavage; for Mean survival time: ORI 100 mg/kg (HPCD), VA 50 mg/kg/day, oral, 5 days
Description: C. difficile (CD) ATCC 43255 was used in all experiments. CD spores were prepared for the infection by incubating CD cells on blood agar plate at 37° C. anaerobically for 7 days, to promote spore formation. The CD colonies were resuspended in phosphate buffered saline (PBS) and mixed with an equal volume of 100% ethanol for one hour. The spores were centrifuged, resuspended in PBS, aliquoted, and frozen at −20° C. Spores were diluted in PBS for oral inoculation into hamsters.
All studies were performed in accordance with protocols that were approved by the Institutional Animal Care and Use Committee. […] One day later (Day 0), animals were infected orally with […] CD spores.
1) Starting on Day 1 post-infection (PI), a single dose of either vehicle, vancomycin (VA) (50 mg/kg/day), or oritavancin (ORI) formulated in 10% hydroxypropyl β-cyclodextrin (HPCD) (10, 50 or 100 mg/kg/day) was administered to the hamsters (n=10/group) by gavage for 5 days.
Detection of CD cells and toxins were detected in the caecal contents of animals at both the experimental and clinical endpoints. Presence of CD toxins (toxin A and B) were detected by using the CD TOX A/B IITM kit (Techlab) as described by the manufacturer. Limit of detection was ≧0.8 ng/mL for Toxin A and ≧2.5 ng/mL of Toxin B. Total viable cells (TC) (both vegetative and spore forms) were enumerated by serially diluting the caecal content by 10 fold in PBS containing 2% oxyrase (Oxyrase Inc). The caecal content dilutions were plated on Brazier's CCEY lysozyme agar (Lab160) without egg yolk. CD spores were counted by treating caecum samples with an equal volume of pure ethanol. The limit of detection (LOD) was 1.47 and 1.77 Log 10 CFU/g caecal content for TC and spores, respectively.
Data were analyzed by Kaplan-Meier and Log rank Wilcoxon tests survival analysis by using GraphPad Prism (version 5.00). A p-value lower than 0.05 (p<0.05) was considered to indicate statistical significance.

[3] = day 2 of instillation (64 mg/L two times daily), vessel 3

SMILES | Longer time for cytotoxin titres to decline to undetectable levels than in vancomycin experiment [1] [days] | C. difficile total counts and spore counts ([1]; 1 day later (day 3 of instillation) and rest of period E, LOD ~1.22 log10 cfu/mL) | Time to cytotoxin titres below the limits of detection ([1]; after cessation of instillation, period F) [days] | Decline of C. difficile spore counts [1, 3] [log10 cfu/mL] | Decline of C. difficile total counts [1, 3] [log10 cfu/mL] | Decline of cytotoxin titres during instillation ([1]; period E) [RU] | Recrudescence of C. difficile spore germination, proliferation and cytotoxin production ([1]; period F) | C. difficile isolation after cessation of instillation ([1]; period F, remainder of the experiment) | Survival prolonged more than untreated animals ([2]; 10 mg/kg once daily for 5 days) [days] | Survival prolonged more than untreated animals ([2]; 50 mg/kg once daily for 5 days) [days] | Survival prolonged more than untreated animals ([2]; 100 mg/kg once daily for 5 days) [days] | Efficacy compared to VA on Day 12 PI ([2]; 100 mg/kg, HPCD) | Mean survival time [2] [days] | Time C. difficile remained as spores before recurrent germination, proliferation and cytotoxin production ([1]; after cessation of instillation, vessel 2) [days] | Time C. difficile remained as spores before recurrent germination, proliferation and cytotoxin production ([1]; after cessation of instillation, vessel 3) [days] | Effect on C. difficile spore counts ([1]; during instillation, period E) | C. difficile total counts by the end of the experiment ([1]; period F) [login cfu/mL] | Cytotoxin titres by the end of the experiment ([1]; period F) [RU]
CN[C@H](CC(C)C)C(=O)N[C@H]1C(=O)N[C@@H](CC(N)=O)C(=O)N[C@H]2C(=O)N[C@H]3C(=O)N[C@H](C(=O)N[C@H](C(=O)O)c4cc(O)cc(O)c4-c4cc3ccc4O)[C@H](O[C@H]3C[C@](C)(N)[C@@H](O)[C@H](C)O3)c3ccc(c(Cl)c3)Oc3cc2cc(c3O[C@@H]2O[C@H](CO)[C@@H](O)[C@H](O)[C@H]2O[C@H]2C[C@](C)(NCc3ccc(-c4ccc(Cl)cc4)cc3)[C@@H](O)[C@H](C)O2)Oc2ccc(cc2Cl)[C@H]1O [oritavancin, N-(4-(4-chlorophenyl)benzyl)A82846B] | 5 | below the limits of detection | ≤ 10 | ~2 | ~2 | 3 | No recrudescence | isolated sporadically at the limits of detection | 9 | 13 | > 17 | superior efficacy | 17 | – | – | – | – | –
CN[C@H](CC(C)C)C(=O)N[C@H]1C(=O)N[C@@H](CC(N)=O)C(=O)N[C@H]2C(=O)N[C@H]3C(=O)N[C@H](C(=O)N[C@H](C(=O)O)c4cc(O)cc(O)c4-c4cc3ccc4O)[C@H](O)c3ccc(c(Cl)c3)Oc3cc2cc(c3O[C@@H]2O[C@H](CO)[C@@H](O)[C@H](O)[C@H]2O[C@H]2C[C@](C)(N)[C@H](O)[C@H](C)O2)Oc2ccc(cc2Cl)[C@H]1O [vancomycin] | – | – | – | – | – | 3 | Recrudescence | – | – | – | – | – | 12 | 12 | 13 | unaffected | ~6 | 5
